Where “and” joins values, the source holds several entries; their conditions need not be identical. Equal entries are not always repeated. Where two headings read alike, the source gives them in different places. Marks after values point to notes of the source that are not given here. Where no end group is shown, it is not given here.
What was measured:
[1] = in vivo; cited from earlier work
[2] = rat, in vivo; cited from earlier work
[3] = in vivo, cited from earlier work
[4] = parameters: method as in PMID 19773525; details: patient; cited from earlier work
[5] = tested on: IL-6; test: Real-time PCR expression in colon; type: in vivo, rat; details: DSS colitis rats, among the five groups, RT-PCR
Protocol: (§1) Total RNA was isolated using RNAiso Plus kits following the manufacturers’ instructions. A 2 μL aliquot of the total RNA was used for first-strand cDNA synthesis using PrimeScript® RT-reagent Kit with gDNA Eraser. Real-time PCR was carried out with ABI plus one (Life Technologies, Carlsbad, CA, USA) using SYBR Premix Ex TaqTM. The primers used were in Table 1. RT-PCR analysis was performed with an ABI Step One Plus Real-Time PCR System (Applied Biosystems, Inc.) using SYBR® Premix Ex TaqTM. PCR reactions were performed in triplicate under the following conditions: 95 °C for 30 s; 40 cycles of 95 °C for 5 s and 60 °C for 30 s. Fluorescent data for quantification were collected at the end of each cycle. Melting curve analysis was performed at 55–95 °C to verify the single product generation at the end of the assay. Standard curves were generated based on the data obtained from the standards of the 2–2^−6 dilution series template. Standard curve analysis was performed by using Step One Software (v2.2, Applied Biosystems, Inc.). Data were normalised to GADPH using the 2^−△△Ct quantitation method.

[6] = tested on: Occludin; test: Real-time PCR expression in colon; type: in vivo, rat; details: DSS colitis rats, compared with DSS group, RT-PCR
Protocol: as §1

[7] = tested on: TNF-α; test: Real-time PCR expression in colon; type: in vivo, rat; details: DSS colitis rats, compared with DSS group, RT-PCR
Protocol: as §1

[8] = tested on: IFN-γ; test: Real-time PCR expression in colon; type: in vivo, rat; details: DSS colitis rats; 25 nmol/kg i.p. daily d1-6 (M); compared with DSS group; RT-PCR
Protocol: as §1

[9] = tested on: IL-1; test: Real-time PCR expression in colon; type: in vivo, rat; details: DSS colitis rats, compared with DSS group, RT-PCR
Protocol: as §1

[10] = tested on: IL-10; test: Real-time PCR expression in colon; type: in vivo, rat; details: DSS colitis rats, compared with DSS group, RT-PCR
Protocol: as §1

[11] = tested on: IL-7; test: Real-time PCR expression in colon; type: in vivo, rat; details: DSS colitis rats, compared with DSS group, RT-PCR
Protocol: as §1

[12] = tested on: ZO-1; test: Real-time PCR expression in colon; type: in vivo, rat; details: DSS colitis rats; 100 nmol/kg i.p. daily d1-6 (H); compared with DSS group; RT-PCR, 2^-ΔΔCt vs GADPH
Protocol: as §1

[13] = tested on: Claudin-1; test: Real-time PCR expression in colon; type: in vivo, rat; details: DSS colitis rats, compared with DSS group, RT-PCR
Protocol: as §1

[14] = tested on: colon of DSS colitis rats; test: Colonic morphology and colonic damage score (histology); type: in vivo, rat; details: for Colonic damage score (CDS) of colon / Colon morphological structures: DSS colitis rats; for Colonic damage score (CDS) of colon: compared with DSS group, Fig. 1f; for colonic damage score: extent / colonic damage score: inflammation: grade 0-3; for colonic damage score: extent / colonic damage score: inflammation / colonic damage score: percent involvement / colonic damage score: crypt demage: individual rats, raw data; for colonic damage score: percent involvement: grade (1) 1-25% to (4) 76-100%; for colonic damage score: crypt demage: scale 0-4
Protocol: Histology was prepared as previously described. The paraffin-embedded sections were cut at 4 μm thickness and stained with haematoxylin and eosin. Duodenum villus-plus-crypt height was imaged using an Olympus DP-71 digital camera, and quantification was performed using an image processing system. Approximately 12 longitudinally oriented villi were measured from each H&E-stained section to make n = 1. All measurements were performed in a blinded manner. Colonic damage score (CDS), was evaluated in a blinded manner in tissue sections based on a grade scale ranging from 0 to 3 to measure the amount and depth of inflammation. The amount of crypt damage or regeneration was measured in a scale of 0–4, as indicated in Dieleman et al.. These changes were also quantified in terms of the percentage involvement of the disease process: (1) 1–25%, (2) 26–50%, (3) 51–75% and (4) 76–100%. Each section was separately scored for each feature by establishing the product of the grade for that feature and the percentage involvement. The sum of the products of the four scores was the CDS for each rat.

[15] = tested on: experimental rat model of ulcerative colitis (DSS); test: Growth performance of DSS colitis rats (body weight, intestinal and colonic length and weight); type: in vivo
Protocol: Animal studies were conducted in accordance with the guidelines of the Zhejiang Farm Animal Welfare Council of China and approved by the ethics committee of Zhejiang Academy of Agricultural Sciences. Thirty-five male Sprague–Dawley rats were allocated into five treatments: control, DSS, DSS + PEG–pGLP-2(L), DSS + PEG–pGLP-2(M) and DSS + PEG–pGLP-2(H). Each treatment was performed in seven replicates on one rat. The rats were housed in a plastic bottom, wire-lid cages, maintained on a 12 h: 12 h light–dark cycle and allowed to acclimatise to the animal facility for 3 days. Rats in control group received only water; other rats were fed with 5% (w/v) DSS through their drinking water for 6 days from the first day of experiment, followed by 2 days of water consumption. The rats from the DSS + PEG–pGLP-2(L), DSS + PEG–pGLP-2(M) and DSS + PEG–pGLP-2(H) groups were intraperitoneally administered with 12.5, 25 and 100 nmol/kg PEG–pGLP-2, respectively, in 0.3 mL of saline solution daily from day 1 to day 6 of the trial. The rats in the control and DSS groups were administered with the same volume of saline solution. During the experimental period, behaviour and body weight were monitored daily. On day 8, all rats were anesthetised and sacrificed to collect their intestinal sample.
Samples collection was prepared as previously described. The segment from the pylorus to the Trietz ligament and from the ileocecal valve to the rectum was considered the duodenum and colon, respectively; these segments were cut free from their mesentery and immediately placed on ice. The duodenum and colon were cleaned of luminal contents, weighed and measured with a balance and a ruler. The middle segments (1 cm) of duodenum and colon were fixed in 10% formalin for 48 h and embedded in paraffin using standard techniques for histology. One centimetre of the distal segment of colon was collected for RNA isolation, which was immediately placed in 1 mL of RNA locker.

[16] = tested on: dipeptidyl peptidase-IV (DPP-IV); details: in DPP-IV in vitro; cited from earlier work
[17] = 12.5 nmol/kg i.p. daily d1-6 (L)
[18] = 100 nmol/kg i.p. daily d1-6 (H)
[19] = 5% DSS colitis, male SD rats, 12.5 nmol/kg i.p. daily d1-6 (L), day 8, mean ± SD
[20] = 5% DSS colitis, male SD rats, 25 nmol/kg i.p. daily d1-6 (M), day 8, mean ± SD
[21] = 5% DSS colitis, male SD rats, 100 nmol/kg i.p. daily d1-6 (H), day 8, mean ± SD
[22] = DSS colitis rats, 12.5 nmol/kg i.p. daily d1-6 (L), individual rats, raw data
[23] = DSS colitis rats, 25 nmol/kg i.p. daily d1-6 (M), individual rats, raw data
[24] = DSS colitis rats, 100 nmol/kg i.p. daily d1-6 (H), individual rats, raw data

Substance: porcine glucagon-like peptide-2 (HADGSFSDEMNTVLDNLATRDFINWLLHTKITDSL; Glucagon-like peptide 2; UniProt P01274 146-180, looked up) [pGLP-2]
- half-life of intact pGLP-2 [1]: 8.4 min

Substance: HGDGSFSDEMNTVLDNLATRDFINWLLHTKITDSL [p[Gly^2]GLP-2, Porcine [Gly^2] GLP-2]
- half-life [2]: 0.817 h

Substance: PEG(2 k)-Lys-GLP-1: PEGylated glucagon-like peptide-1 of Lee et al.
- half-life increase ([3]; iv): 16 fold
- half-life increase ([3]; sc): 3.2 fold

Substance: teduglutide
- t1/2 [4]: 2.99 h

Substance: polyethylene glycosylated porcine glucagon-like peptide-2 (HGDGSFSDEMNTVLDNLATRDFINWLLHTKITDSL; also: mono-PEGylated with mPEG5k-SPA, site not given here; UniProt P01274 146-180, looked up, variant A2G) [PEG–pGLP-2]
- Expression of IL-6 in colon [5, 17]: No significant differences
- Expression of IL-6 in colon ([5]; 25 nmol/kg i.p. daily d1-6 (M)): No significant differences
- Expression of IL-6 in colon [5, 18]: No significant differences
- Expression of occludin in colon ([6]; 25 nmol/kg i.p. daily d1-6 (M)): significantly (p < 0.05) increased
- Expression of occludin in colon [6, 18]: significantly (p < 0.05) increased
- Expression of TNF-α in colon [7, 17]: significantly (p < 0.05) decreased
- Expression of TNF-α in colon ([7]; 25 nmol/kg i.p. daily d1-6 (M)): significantly (p < 0.05) decreased
- Expression of TNF-α in colon [7, 18]: significantly (p < 0.05) decreased
- Expression of IFN-γ in colon [8]: significantly (p < 0.05) decreased
- Expression of IL-1 in colon [9, 17]: significantly (p < 0.05) decreased
- Expression of IL-1 in colon ([9]; 25 nmol/kg i.p. daily d1-6 (M)): significantly (p < 0.05) decreased
- Expression of IL-1 in colon [9, 18]: significantly (p < 0.05) decreased
- Expression of IL-10 in colon [10, 17]: significantly (p < 0.05) decreased
- Expression of IL-10 in colon ([10]; 25 nmol/kg i.p. daily d1-6 (M)): significantly (p < 0.05) decreased
- Expression of IL-7 in colon [11, 17]: significantly (p < 0.05) decreased
- Expression of IL-7 in colon ([11]; 25 nmol/kg i.p. daily d1-6 (M)): significantly (p < 0.05) decreased
- Expression of IL-7 in colon [11, 18]: significantly (p < 0.05) decreased
- Expression of ZO-1 in colon [12]: significantly (p < 0.05) increased
- Expression of claudin-1 in colon ([13]; 25 nmol/kg i.p. daily d1-6 (M)): significantly (p < 0.05) decreased
- Expression of claudin-1 in colon [13, 18]: significantly (p < 0.05) decreased
- Colonic damage score (CDS) of colon [14, 17]: significantly (p < 0.05) decreased
- Colon morphological structures ([14]; 25 nmol/kg i.p. daily d1-6 (M), Fig. 1d): almost normal with no damage
- Colonic damage score (CDS) of colon ([14]; 25 nmol/kg i.p. daily d1-6 (M)): significantly (p < 0.05) decreased
- Colon morphological structures ([14]; 100 nmol/kg i.p. daily d1-6 (H), Fig. 1e): almost normal with no damage
- Colonic damage score (CDS) of colon [14, 18]: significantly (p < 0.05) decreased
- colonic damage score: extent [14, 17]: 0.00 and 1.00
- colonic damage score: inflammation [14, 17]: 1.00 and 2.00
- colonic damage score: extent ([14]; 25 nmol/kg i.p. daily d1-6 (M)): 0.00 and 1.00
- colonic damage score: inflammation ([14]; 25 nmol/kg i.p. daily d1-6 (M)): 2.00 and 1.00
- colonic damage score: extent [14, 18]: 0.00
- colonic damage score: inflammation [14, 18]: 1.00 and 2.00
- colonic damage score: percent involvement [14, 17]: 0.00 and 1.00
- colonic damage score: percent involvement ([14]; 25 nmol/kg i.p. daily d1-6 (M)): 0.00 and 1.00
- colonic damage score: percent involvement [14, 18]: 0.00 and 1.00
- colonic damage score: crypt demage [14, 17]: 0.00 and 1.00
- colonic damage score: crypt demage ([14]; 25 nmol/kg i.p. daily d1-6 (M)): 0.00 and 3.00 and 1.00
- colonic damage score: crypt demage [14, 18]: 0.00 and 3.00
- half-life [2]: 3.37 h
- t1/2 [2]: 3.38 h
- Body weight change [15, 19]: 21.45 ± 2.00^b %
- Colonic length [15, 19]: 14.74 ± 1.90^a cm
- Intestinal length [15, 19]: 94.50 ± 7.07 cm
- Body weight change [15, 20]: 21.46 ± 4.65^b %
- Colonic length [15, 20]: 14.48 cm
- Intestinal length [15, 20]: 99.10 ± 8.03 cm
- Body weight change [15, 21]: 20.63 ± 3.4^b %
- Colonic length [15, 21]: 13.42 cm
- Intestinal length [15, 21]: 99.56 ± 6.82 cm
- Colonic weight [15, 22]: 3.68 g and 1.94 g and 1.55 g and 1.6 g and 3.59 g and 2.4 g
- Intestinal length [15, 22]: 99.0 cm and 95.0 cm and 102.0 cm and 93.0 cm
- Intestinal weight [15, 22]: 8.25 g and 6.51 g and 7.68 g and 5.4 g and 8.63 g and 9.24 g
- final weight [15, 22]: 240 g and 217 g and 219 g and 157 g and 223 g
- Colonic weight [15, 23]: 3.22 g and 2.19 g and 2.7 g and 2.5 g and 3.3 g and 3 g
- Intestinal weight [15, 23]: 6 g and 6.93 g and 9 g and 8.4 g and 8.73 g and 7.5 g
- final weight [15, 23]: 220 g and 180 g and 246 g and 182 g and 230 g and 212 g
- Colonic length [15, 24]: 14.7 cm and 12.7 cm and 13.7 cm and 13.0 cm
- Colonic weight [15, 24]: 2.55 g and 2.37 g and 1.85 g and 2.2 g and 2.94 g
- Intestinal weight [15, 24]: 10 g and 7.62 g and 7.22 g and 8 g and 7.87 g and 9.26 g
- final weight [15, 24]: 221 g and 218 g and 214 g and 233 g and 219 g and 242 g
- half-life (t1/2) longer than that of pGLP-2 [16]: 16 fold
